Measured values as given in patent publication US8278452B2, “Heterocyclic compounds and compositions as c-kit and PDGFR kinase inhibitors” (IRM LLC, priority 2008, dated 2012).

Test system: Mo7e cells which endogenously express c-kit
Assay: Mo7e assay: inhibition of SCF dependent proliferation (MTT)
Assay type: cell-based
Settings: Table 1; SCF stimulated Mo7e cells, 48 hours, MTT
Description: The compounds described herein are tested for inhibition of SCF dependent proliferation using Mo7e cells which endogenously express c-kit in a 96 well format. Two-fold serially diluted test compounds (Cmax=10 μM) are evaluated for their antiproliferative activity of Mo7e cells stimulated with human recombinant SCF. After 48 hours of incubation at 37° C., cell viability is measured by using a MTT colorimetric assay from Promega. IC50 values for compounds of the invention are quoted in table 1, supra.

Compound | IC50 [nM]
CCc1cc2c(cn1)cc(-c1cc(Nc3noc(C(C)C)n3)ccc1C)c(=O)n2C [Compound A104, 7-ethyl-3-(5-(5-isopropyl-1,2,4-oxadiazol-3-ylamino)-2-methylphenyl)-1-methyl-1,6-naphthyridin-2(1H)-one] | 88
CO[C@@H](C)c1nc(Nc2ccc(C)c(-c3cc4cnc(C)cc4n(C)c3=O)c2)no1 [Compound A76, (S)-3-(5-(5-(1-methoxyethyl)-1,2,4-oxadiazol-3-ylamino)-2-methylphenyl)-1,7-dimethyl-1,6-naphthyridin-2(1H)-one] | 142
Cc1cc2c(cn1)cc(-c1cc(Nc3noc(C(C)(F)F)n3)ccc1C)c(=O)n2C [Compound A54, 3-(5-(5-(1,1-difluoroethyl)-1,2,4-oxadiazol-3-ylamino)-2-methylphenyl)-1,7-dimethyl-1,6-naphthyridin-2(1H)-one] | 148
Cc1cc2c(cn1)cc(-c1cc(Nc3nnc(C(C)(C)C)o3)ccc1C)c(=O)n2C [Compound B8, 3-{5-[(5-tert-butyl-1,3,4-oxadiazol-2-yl)amino]-2-methylphenyl}-1,7-dimethyl-1,2-dihydro-1,6-naphthyridin-2-one] | 211
Cc1cc2c(cn1)cc(-c1cc(Nc3noc(C4CC(C)(O)C4)n3)ccc1C)c(=O)n2C (stereo not drawn) [Compound A84, 3-(5-{[5-(3-hydroxy-3-methylcyclobutyl)-1,2,4-oxadiazol-3-yl]amino}-2-methylphenyl)-1,7-dimethyl-1,2-dihydro-1,6-naphthyridin-2-one] | 176
Cc1cc2c(cn1)cc(-c1cc(Nc3noc(-c4ccccc4)c3C)ccc1C)c(=O)n2C [Compound D10] | 339
Cc1cc2c(cn1)cc(-c1cc(Nc3noc(-c4ccc(F)cc4Cl)n3)ccc1C)c(=O)n2C [Compound A81, 3-(5-{[5-(2-chloro-4-fluorophenyl)-1,2,4-oxadiazol-3-yl]amino}-2-methylphenyl)-1,7-dimethyl-1,2-dihydro-1,6-naphthyridin-2-one] | 237
Cc1cccc(-c2nc(Nc3ccc(C)c(-c4cc5cnc(C)cc5n(C)c4=O)c3)no2)c1 [Compound A17, 1,7-dimethyl-3-(2-methyl-5-{[5-(3-methylphenyl)-1,2,4-oxadiazol-3-yl]amino}phenyl)-1,2-dihydro-1,6-naphthyridin-2-one] | 241
Cc1cc2c(cn1)cc(-c1cc(Nc3noc(-c4cccc(C)n4)n3)ccc1C)c(=O)n2C [Compound A47, 1,7-dimethyl-3-(2-methyl-5-{[5-(6-methylpyridin-2-yl)-1,2,4-oxadiazol-3-yl]amino}phenyl)-1,2-dihydro-1,6-naphthyridin-2-one] | 311
Cc1cc2c(cn1)cc(-c1cc(Nc3noc(C(C)CO)n3)ccc1C)c(=O)n2C (stereo not drawn) [Compound A67, 3-(5-(5-(1-hydroxypropan-2-yl)-1,2,4-oxadiazol-3-ylamino)-2-methylphenyl)-1,7-dimethyl-1,6-naphthyridin-2(1H)-one] | 299
Cc1ccc(-c2nc(Nc3ccc(C)c(-c4cc5cnc(C)cc5n(C)c4=O)c3)no2)cn1 [Compound A51, 1,7-dimethyl-3-(2-methyl-5-(5-(6-methylpyridin-3-yl)-1,2,4-oxadiazol-3-ylamino)phenyl)-1,6-naphthyridin-2(1H)-one] | 119
Cc1cc2c(cn1)cc(-c1cc(Nc3noc(-c4ccc(OC(F)(F)F)cc4)n3)ccc1C)c(=O)n2C [Compound A41, 1,7-dimethyl-3-[2-methyl-5-({5-[4-(trifluoromethoxy)phenyl]-1,2,4-oxadiazol-3-yl}amino)phenyl]-1,2-dihydro-1,6-naphthyridin-2-one] | 53
Cc1cc2c(cn1)cc(-c1cc(Nc3noc(C(O)C(C)C)n3)ccc1C)c(=O)n2C (stereo in doubt) [Compound A93, 3-[5-({5-[(1S)-1-hydroxy-2-methylpropyl]-1,2,4-oxadiazol-3-yl}amino)-2-methylphenyl]-1,7-dimethyl-1,2-dihydro-1,6-naphthyridin-2-one] | 283
Cc1cc2c(cn1)cc(-c1cc(Nc3noc(C4CCC(O)C4)n3)ccc1C)c(=O)n2C (stereo not drawn) [Compound A73, 3-(5-(5-(3-hydroxycyclopentyl)-1,2,4-oxadiazol-3-ylamino)-2-methylphenyl)-1,7-dimethyl-1,6-naphthyridin-2(1H)-one] | 178
CCCc1nc(Nc2ccc(C)c(-c3cc4cnc(C)cc4n(C)c3=O)c2)no1 [Compound A28, 1,7-dimethyl-3-{2-methyl-5-[(5-propyl-1,2,4-oxadiazol-3-yl)amino]phenyl}-1,2-dihydro-1,6-naphthyridin-2-one] | 50
COc1ccc(-c2nc(Nc3ccc(C)c(-c4cc5cnc(C)cc5n(C)c4=O)c3)no2)nc1 [Compound A103, 3-(5-{[5-(5-methoxypyridin-2-yl)-1,2,4-oxadiazol-3-yl]amino}-2-methylphenyl)-1,7-dimethyl-1,2-dihydro-1,6-naphthyridin-2-one] | 82
Cc1cc2c(cn1)cc(-c1cc(Nc3nnc(-c4ccc(Cl)cc4)o3)ccc1C)c(=O)n2C [Compound B3, 3-(5-{[5-(4-chlorophenyl)-1,3,4-oxadiazol-2-yl]amino}-2-methylphenyl)-1,7-dimethyl-1,2-dihydro-1,6-naphthyridin-2-one] | 88

Compound | IC50 [nM]
Cc1cc2c(cn1)cc(-c1cc(Nc3cc(C4CC4)on3)ccc1C)c(=O)n2C [Compound D4, 3-(5-(5-cyclopropylisoxazol-3-ylamino)-2-methylphenyl)-1,7-dimethyl-1,6-naphthyridin-2(1H)-one] | 56
CCC(C)c1nc(Nc2ccc(C)c(-c3cc4cnc(C)cc4n(C)c3=O)c2)no1 (stereo not drawn) [Compound A29, 3-(5-{[5-(butan-2-yl)-1,2,4-oxadiazol-3-yl]amino}-2-methylphenyl)-1,7-dimethyl-1,2-dihydro-1,6-naphthyridin-2-one] | 58
Cc1cc2c(cn1)cc(-c1cc(Nc3noc([C@@]4(C)CCCO4)n3)ccc1C)c(=O)n2C [Compound A97, 1,7-dimethyl-3-[2-methyl-5-({5-[(2R)-2-methyloxolan-2-yl]-1,2,4-oxadiazol-3-yl}amino)phenyl]-1,2-dihydro-1,6-naphthyridin-2-one] | 160
Cc1cncc(-c2nc(Nc3ccc(C)c(-c4cc5cnc(C)cc5n(C)c4=O)c3)no2)c1 [Compound A53, 1,7-dimethyl-3-(2-methyl-5-{[5-(5-methylpyridin-3-yl)-1,2,4-oxadiazol-3-yl]amino}phenyl)-1,2-dihydro-1,6-naphthyridin-2-one] | 427
Cc1cc2c(cn1)cc(-c1cc(Nc3noc(-c4cccc(O)n4)n3)ccc1C)c(=O)n2C [Compound A42, 3-(5-{[5-(6-hydroxypyridin-2-yl)-1,2,4-oxadiazol-3-yl]amino}-2-methylphenyl)-1,7-dimethyl-1,2-dihydro-1,6-naphthyridin-2-one] | 265
Cc1cc2c(cn1)cc(-c1cc(Nc3noc(-c4ccccc4Cl)n3)ccc1C)c(=O)n2C [Compound A8, 3-(5-{[5-(2-chlorophenyl)-1,2,4-oxadiazol-3-yl]amino}-2-methylphenyl)-1,7-dimethyl-1,2-dihydro-1,6-naphthyridin-2-one] | 158
Cc1cc2c(cn1)cc(-c1cc(Nc3nnc(C4CCCCC4)o3)ccc1C)c(=O)n2C [Compound B10, 3-{5-[(5-cyclohexyl-1,3,4-oxadiazol-2-yl)amino]-2-methylphenyl}-1,7-dimethyl-1,2-dihydro-1,6-naphthyridin-2-one] | 378
CCC(C)c1nc(Nc2ccc(C)c(-c3cc4cnc(C)cc4n(C)c3=O)c2)no1 (stereo in doubt) [Compound A27, 3-[5-({5-[(2S)-butan-2-yl]-1,2,4-oxadiazol-3-yl}amino)-2-methylphenyl]-1,7-dimethyl-1,2-dihydro-1,6-naphthyridin-2-one] | 54
Cc1cc2c(cn1)cc(-c1cc(Nc3cc(-c4ccc(Br)cn4)on3)ccc1C)c(=O)n2C [Compound D6] | 229
Cc1cc2c(cn1)cc(-c1cc(Nc3noc(C4CCC4)n3)ccc1C)c(=O)n2C [Compound A11, 3-{5-[(5-cyclobutyl-1,2,4-oxadiazol-3-yl)amino]-2-methylphenyl}-1,7-dimethyl-1,2-dihydro-1,6-naphthyridin-2-one] | 12
Cc1cc2c(cn1)cc(-c1cc(Nc3nc(C(C)C)no3)ccc1C)c(=O)n2C [Compound E3, 3-(5-(3-isopropyl-1,2,4-oxadiazol-5-ylamino)-2-methylphenyl)-1,7-dimethyl-1,6-naphthyridin-2(1H)-one] | 181
Cc1cc2c(cn1)cc(-c1cc(Nc3noc([C@H]4CCCO4)n3)ccc1C)c(=O)n2C [Compound A75, 1,7-dimethyl-3-[2-methyl-5-({5-[(2R)-oxolan-2-yl]-1,2,4-oxadiazol-3-yl}amino)phenyl]-1,2-dihydro-1,6-naphthyridin-2-one] | 40
Cc1cc2c(cn1)cc(-c1cc(Nc3noc(C4CCCN4C)n3)ccc1C)c(=O)n2C (stereo not drawn) [Compound A23, 1,7-dimethyl-3-(2-methyl-5-{[5-(1-methylpyrrolidin-2-yl)-1,2,4-oxadiazol-3-yl]amino}phenyl)-1,2-dihydro-1,6-naphthyridin-2-one] | 208
Cc1cc2c(cn1)cc(-c1cc(Nc3noc(CC(C)C)n3)ccc1C)c(=O)n2C [Compound A68, 3-(5-(5-isobutyl-1,2,4-oxadiazol-3-ylamino)-2-methylphenyl)-1,7-dimethyl-1,6-naphthyridin-2(1H)-one] | 128
Cc1cc2c(cn1)cc(-c1cc(Nc3cc(-c4ccc(Cl)cc4Cl)on3)ccc1C)c(=O)n2C [Compound D7] | 401
Cc1cc2c(cn1)cc(-c1cc(Nc3noc(-c4ccc(C(C)(F)F)cc4)n3)ccc1C)c(=O)n2C [Compound A89, 3-[5-({5-[4-(1,1-difluoroethyl)phenyl]-1,2,4-oxadiazol-3-yl}amino)-2-methylphenyl]-1,7-dimethyl-1,2-dihydro-1,6-naphthyridin-2-one] | 217
